The term inhibition denotes the share of the control response that was lost under treatment.

One assay relates to HCT116 colon cancer cell. Kind of assay: HCT116 colon cancer cell proliferation (xCELLigence). Format: cell-based, human. Particulars: for inhibition at 300 µM / IC50: Homo sapiens, HCT-116; for IC50: read-out: IC50 (μM), inhibition of HCT116 colon cancer cell proliferation. The protocol: Cellular proliferation assays are conducted in HCT116 CRC cells in vitro, using the Roche XCelligence method. Concentration-response curves with the various AOAA analogs are prepared (concentration range: 1, 3, 10, 100, 300 and 600 μM). AOAA is used as the reference control, which, according to preliminary data, has an IC50 of approximately 300 μM. Control proliferation studies in the non-carcinogenic colonic epithelial cell line NCM356 are used to confirm cancer-cell selectivity. Since the NCM356 cells contain low levels of CBS, based on previous studies it is expect that AOAA (and its prodrugs) will only exert modest antiproliferative effects in these cells. Proliferation-inhibitory effects of the AOAA prodrugs in NCM356 cells indicate CBS-independent pharmacological actions. A collection of human colorectal tumor tissue samples (and surrounding non-cancerous tissue) are used to test the conversion of the AOAA prodrugs to AOAA in a number of cancer samples.
(§1) Cellular migration and invasion assays were performed as described (Chao et al. (1996) Cancer Res. 56:4811-19). Briefly, 10^5 cells were suspended in serum-free media containing 0.1% BSA and then added to 6.5 mm Transwell chambers ([…]) uncoated (migration assay) or coated with a thin layer (45 μl) of growth factor reduced matrigel (cell invasion assay). Cells were allowed to migrate toward the bottom chamber containing fibroblast (NIH-3T3 cells) conditioned media at 37° C. for 6 or 24 h for cell migration and invasion, respectively. Migrated and invaded cells were then fixed in Carson's fixative, stained in 0.33% toluidine blue and quantified by visual counting. For the HCT116-EAhy926 co-culture experiment, the cancer cell line was grown to confluence in the bottom wells of the transwell chambers and then endothelial cell migration was assessed (Coletta et al. (2012) Proc Natl Acad Sci USA. 109:9161-66). For assessment of colon cell proliferation, the xCELLigence system (Roche) was used (Szabo and Papapetropoulos (2011) Br J Pharmacol. 164:853-65).
For assessment of cell proliferation, the xCELLigence system (Roche) was used. Briefly, HCT116 cells were cultured until approximately 70% confluence. Cells were then detached by Trypsin-EDTA and resuspended in fresh culture media at a concentration of 30,000 cells/ml. 200 μl of cell suspension was added to each well (6,000 cells/well) of a E-plate 96, a specially designed 96-well microtiter plate containing interdigitated microelectrodes to non-invasively monitor the cell proliferation by measuring the relative change in the electrical impedance of the cell monolayer, a unitless parameter named cell index (CI). Cells were then treated with YD02-51 and proliferation was monitored for 48 hours.

For assay [1], the system named is peritumor microvessel blood flow. Description: Tumor microvascular blood flow (laser Doppler). Format: in vivo, mice. To be noted: intratumoral injection; AOAA 9 mg/kg, L-cysteine 1 mg/kg. The protocol:
FIG. 6. L-Cysteine increases, while AOAA reduces microvessel blood flow in tumor bearing mice. Tumor bearing mice were anesthetized by i.p. injection of ketamine-xylazine and a laser Doppler (PeriFlux system 5000) was placed on top of the tumor for microvessel blood flow measurements. After a stabilization period, L-Cys or AOAA were injected subcutaneously in proximity of the tumor. […] Data represent mean±SEM of n=6 determinations.
Skin microvascular blood flow was measured using a PeriFlux 5000 laser-Doppler flowmeter. Mice bearing PTX were anesthetized by ketamine-xylazine (i.p.). The laser-Doppler probe was placed on top of the tumors and a stable basal signal was recorded. Changes in the subcutaneous microcirculatory perfusion were detected following intratumoral injections of either L-cysteine (1 mg/kg) or AOAA (9 mg/kg).

In assay [2] the test system is mitochondria isolated from HCT116 cells. Description: Bioenergetic analysis in isolated mitochondria. Format: cell-based, human. Particulars: L-cysteine 30 nM; mitochondria from control shNT cells. The protocol: Bioenergetic measurements in mitochondria isolated from shNT and shCBS HCT-116 cells were conducted in the absence or presence of L-cysteine (30 nM) (Módis et al. (2013) FASEB J 27:601-11; Wu et al. (2007) Am J Physiol Cell Physiol. 292:C125-36). Basal respiration (State 2) in the presence of succinate and rotenone was measured, followed by State 3 (phosphorylating respiration), in the presence of ADP. State 4o was determined after the addition of oligomycin, and maximal uncoupler-stimulated respiration (State 3u) was assessed in the presence of FCCP.

In the next assay the test system is HCT116 cells. Description: HCT116 cell migration and invasion (Transwell). To be noted: NaHS 30 μM in lower chamber; serum-free media. Format: cell-based, human. The protocol:
FIG. 3. […] (A, B) The lentiviral shRNA vectors targeting CBS (shCBS) and CSE (shCSE) were transfected into HCT116 cells. A non-targeting sequence was used as control (shNT). […] Following CBS and CSE silencing, cells were seeded at the density of 3000 cells/well in xCELLigence plates and proliferation was monitored for 36 hours. […] The NCM356 cells were infected overnight with a CBS expressing adenovirus (Ad-CBS, 10 multiplicity of infection (MOI)) or its control, a green fluorescent protein (Ad-GFP). The culture media was then replaced and cells were seeded in XCelligence plates at 3000 cells/well. Cell proliferation was then measured real-time over 36 hours. […] (H, I) The effect of AOAA and NaHS was also tested on HCT116 cell migration (H) and invasion (I). Cells were pretreated either with vehicle or AOAA (1 mM) and seeded in serum-free DMEM (0.1% albumin) in the upper chamber of a trans-well insert uncoated (migration assay) or coated with growth factor reduced matrigel (invasion assay). Migration and invasion were stimulated by fibroblast-conditioned media in the lower chamber for 6 and 24 hours, respectively. […] (J) In a co-culture of human endothelial cells (EAhy926) and colon cancer cells (HCT116), HCT 116 cells were seeded in the lower chamber of a trans-well insert and cultured to confluence. Endothelial cells were then seeded into the upper chamber in serum-free DMEM and allowed to migrate for 4 hours at 37° C. […] Western blots are representative of at least three independent experiments; proliferation/migration/invasion assays and H2S measurements represent mean±SEM of n=3 determinations.
as §1, with “109:9161-66).” for “109:9161-66). For assessment of colon cell proliferation, the xCELLigence system (Roche) was used (Szabo and Papapetropoulos (2011) Br J Pharmacol. 164:853-65).”

In the next assay the test system is HCT116 tumor xenografts. Kind of assay: HCT116 tumor xenograft in nude mice. It is filed as in vivo, Nu/nu Balb/C female mice. To be noted: 0.1, 0.5 or 1 mg/kg s.c. 6 days/week; harvest Day 28. The protocol:
Nu/nu Balb/C female mice (8-10 weeks) were injected subcutaneously in the right and left dorsum (10^6 cells/side with HCT-116 cells). One week later, the mice were randomized and subcutaneous injections of phosphate buffered saline (PBS) or AOAA (9 mg/kg/day) were performed 6 days/week. Tumor diameters were measured transcutaneously using calipers and tumor volumes were calculated using the formula V=(π/6)hd^2. T-test comparisons of the tumor volumes and final weights at harvest were performed. Xenotrials with patient-derived xenografts (PTX) were performed on nu/nu mice implanted subcutaneously with a piece of Passage 2 tumor measuring 2-5 mm^3 each. When a small palpable tumor was evident at 7-10 days, the mice with tumor take were randomized and subjected to subcutaneous injection of vehicle or AOAA (9 mg/kg/day) 6 days/week. Specimens were fixed with 10% formalin and embedded in paraffin. 5 μm sections were stained with hematoxylin and eosin. Each in vivo experiment was repeated at least twice.
Tissue preparation, immunostaining of CD31, and evaluation of microvessel density with the Chakley reticle was performed as described (Chao et al. (1996) Cancer Res. 56:4811-19).
Nu/nu Balb/c female mice (8-10 weeks) were injected subcutaneously in the right and left dorsum (10^6 cells/side with HCT116 cells). One week later, the mice were randomized and subcutaneous injection of phosphate buffered saline (PBS control) or YD2-51 (0.1, 0.5 or 1 mg/kg) was performed 6 days/week. Tumor volumes and final weights at harvest (post-tumor injection Day 28) were performed and tumor weight/animal weight ratios calculated.

Entries after “also recorded” stand apart in the source; their conditions may differ.

Compound `CC(C)(C)OC(=O)NOCC(=O)O` [YD-2-23] came in with an inhibition at 300 µM in the assay on HCT116 colon cancer cell (HCT116) of 71%. In addition, the IC50 in the assay on HCT116 colon cancer cell was found to be 207 µM.
As to `COC(=O)CON` [YD-1-71, aminooxyacetic acid methyl ester], in the assay with HCT116 colon cancer cell (HCT116), the “antiproliferative effect in HCT116 compared with parent AOAA” value is listed as “markedly enhances the antiproliferative effect; also recorded: substantially lower concentrations” and the inhibition at 300 µM turned out to be 80%. For the same compound, in the assay on HCT116 colon cancer cell, the IC50 was determined as 181 µM.
Turning to `N[C@@H](CS)C(=O)O` [L-cysteine], in assay [1], the “peritumor / skin microvessel blood flow” value is “increased”. The “OCR in state 3 and state 3u respiration” value in assay [2] is “elevates OCR”.
Turning to `[Na+].[SH-]` [NaHS, sodium hydrogen sulfide], in the assay on HCT116 cells, the HCT116 cell invasion result is “slightly enhanced” and the HCT116 cell migration entry is listed as “slightly enhanced”.
With `CCC(CC)OC(=O)CON` [YD-2-51, pentan-3-yl 2-(aminooxy)acetate], the “tumor cell proliferation (cell index)” value with HCT116 colon cancer cell (HCT116, 6,000 cells/well, monitored 48 hours) is “potent, concentration-dependent inhibition”. In addition, the “tumor growth in tumor-bearing mice” value in the assay with HCT116 tumor xenografts is reported as “inhibited tumor growth”.
`NOCC(=O)OCc1ccccc1` [YD-2-22] had an inhibition at 300 µM in the assay on HCT116 colon cancer cell (HCT116) of 91%. The IC50 with HCT116 colon cancer cell came to 159 µM.
